Test results: patent US10414754B2, “Indolizine compounds, a process for their preparation and pharmaceutical compositions containing them” (LES LABORATOIRES SERVIER, priority 2013, dated 2019)
Where a name gives a salt, the structure may show the parent alone.

What was measured:
[1] = tested on: RS4;11 leukaemia tumour line; assay: In vitro cytotoxicity (MTT) on RS4;11; format: cell-based; settings: Homo sapiens; RS4;11 cells, 48 hours exposure
Experimental: The cytotoxicity studies were carried out on the RS4;11 leukaemia tumour line.
The cells are distributed onto microplates and exposed to the test compounds for 48 hours.
The cell viability is then quantified by a colorimetric assay, the Microculture Tetrazolium Assay (Cancer Res., 1987, 47, 939-942).

Bcl-2 protein = biological target: T1, Bcl-2 protein (histag-Bcl-2, UniProtKB P10415) (Homo sapiens, UniProt P10415); assay: Inhibition of Bcl-2 by the fluorescence polarisation technique; format: binding; settings: fluorescence polarisation, 2 hours incubation; read-out: IC50 (nM) Bcl-2 FP
T1 construct: His tag
Experimental: The fluorescence polarisation tests were carried out on microplates (384 wells). The Bcl-2 protein, labelled (histag-Bcl-2 such that Bcl-2 corresponds to the UniProtKB® primary accession number: P10415), at a final concentration of 2.50×10^−8 M, is mixed with a fluorescent peptide (Fluorescein-[…]), at a final concentration of 1.00×10^−8M in a buffer solution (Hepes 10 mM, NaCl 150 mM, Tween20 0.05%, pH 7.4), in the presence or absence of increasing concentrations of test compounds. After incubation for 2 hours, the fluorescence polarisation is measured.

T1 sequence (P10415 whole entry): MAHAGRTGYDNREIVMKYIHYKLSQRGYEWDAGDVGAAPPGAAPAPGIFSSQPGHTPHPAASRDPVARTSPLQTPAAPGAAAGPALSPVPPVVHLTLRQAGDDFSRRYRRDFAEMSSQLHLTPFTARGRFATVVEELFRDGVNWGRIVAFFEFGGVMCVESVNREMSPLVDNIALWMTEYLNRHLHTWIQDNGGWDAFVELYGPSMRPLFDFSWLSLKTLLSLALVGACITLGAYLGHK

C[C@@H]1Cc2ccccc2CN1C(=O)c1cc2c(cc1-c1cc(C(=O)N(c3ccc(O)cc3)c3ccc(OCCN4CCOCC4)c(F)c3)c3ccccn13)OCO2 [Example 17, N-{3-Fluoro-4-[2-(morpholin-4-yl)ethoxy]phenyl}-N-(4-hydroxyphenyl)-3-(6-{[(3R)-3-methyl-3,4-dihydroisoquinolin-2(1H)-yl]carbonyl}-1,3-benzodioxol-5-yl)indolizine-1-carboxamide hydrochloride]
IC50 [1]: 11.8 nM | IC50 (Bcl-2 protein): 3.4 nM

O=C(c1cc2c(cc1-c1cc(C(=O)N(c3ccc(O)cc3)c3ccc(OCCN4CCOCC4)c(F)c3)c3ccccn13)OCO2)N1CCc2ccccc2C1 [Example 18, 3-[6-(3,4-Dihydroisoquinolin-2(1H)-ylcarbonyl)-1,3-benzodioxol-5-yl]-N-{3-fluoro-4-[2-(morpholin-4-yl)ethoxy]phenyl}-N-(4-hydroxyphenyl)indolizine-1-carboxamide hydrochloride]
IC50 [1]: 47.7 nM | IC50 (Bcl-2 protein): 7.5 nM

Cc1ccc(C(=O)N2Cc3ccccc3C[C@H]2CCN2CCOCC2)c(-c2cc(C(=O)N(c3ccccc3)c3ccc(O)cc3)c3n2CCCC3)c1 [Example 19, N-(4-Hydroxyphenyl)-3-(5-methyl-2-{[(3S)-3-[2-(morpholin-4-yl)ethyl]-3,4-dihydroisoquinolin-2(1H)-yl]carbonyl}phenyl)-N-phenyl-5,6,7,8-tetrahydro-indolizine-1-carboxamide hydrochloride]
IC50 [1]: 235 nM | IC50 (Bcl-2 protein): 8 nM

O=C(c1cc(-c2ccccc2C(=O)N2Cc3ccccc3C[C@H]2CCN2CCOCC2)n2c1CCCC2)N(c1ccccc1)c1ccc(O)cc1 [Example 20, N-(4-Hydroxyphenyl)-3-(2-{[(3S)-3-[2-(morpholin-4-yl)ethyl]-3,4-dihydroisoquinolin-2(1H)-yl]carbonyl}phenyl)-N-phenyl-5,6,7,8-tetrahydroindolizine-1-carboxamide hydrochloride]
IC50 [1]: 205 nM | IC50 (Bcl-2 protein): 11.1 nM

C[C@@H]1Cc2ccccc2CN1C(=O)c1cc2c(cc1-c1cc(C(=O)N(c3ccncc3)c3ccc(O)cc3)c3ccccn13)OCO2 [Example 21, N-(4-Hydroxyphenyl)-3-(6-{[(3R)-3-methyl-3,4-dihydroisoquinolin-2(1H)-yl]carbonyl}-1,3-benzodioxol-5-yl)-N-(pyridin-4-yl)indolizine-1-carboxamide hydrochloride]
IC50 [1]: 25.3 nM | IC50 (Bcl-2 protein): 4.6 nM

O=C(c1cc(-c2cc3c(cc2C(=O)N2Cc4ccccc4C[C@H]2CCN2CCOCC2)OCO3)n2cccnc12)N(c1ccccc1)c1ccc(O)cc1 [Example 22, N-(4-Hydroxyphenyl)-6-(6-{[(3S)-3-[2-(morpholin-4-yl)ethyl]-3,4-dihydroisoquinolin-2(1H)-yl]carbonyl}-1,3-benzodioxol-5-yl)-N-phenylpyrrolo[1,2-a]-pyrimidine-8-carboxamide hydrochloride]
IC50 [1]: 263 nM | IC50 (Bcl-2 protein): 12.9 nM

N#Cc1cccc(N(C(=O)c2cc(-c3cc4c(cc3C(=O)N3Cc5ccccc5C[C@H]3CCN3CCOCC3)OCO4)n3c2CCCC3)c2ccc(O)cc2)c1 [Example 23, N-(3-Cyanophenyl)-N-(4-hydroxyphenyl)-3-(6-{[(3S)-3-[2-(morpholin-4-yl)ethyl]-3,4-dihydroisoquinolin-2(1H)-yl]carbonyl}-1,3-benzodioxol-5-yl)-5,6,7,8-tetrahydroindolizine-1-carboxamide hydrochloride]
IC50 [1]: 9.99 nM | IC50 (Bcl-2 protein): 3.8 nM

O=C(c1cc(-c2cc3c(cc2C(=O)N2Cc4ccccc4C[C@H]2CCN2CCOCC2)OCO3)n2c1CCCC2)N(c1ccc(O)cc1)c1cccc(F)c1 [Example 24, N-(3-Fluorophenyl)-N-(4-hydroxyphenyl)-3-(6-{[(3S)-3-[2-(morpholin-4-yl)ethyl]-3,4-dihydroisoquinolin-2(1H)-yl]carbonyl}-1,3-benzodioxol-5-yl)-5,6,7,8-tetrahydroindolizine-1-carboxamide hydrochloride]
IC50 [1]: 28.4 nM | IC50 (Bcl-2 protein): 6.2 nM

O=C(c1cc(-c2cc3c(cc2C(=O)N2Cc4ccccc4C[C@H]2CCN2CCOCC2)OCO3)n2c1CCCC2)N(c1ccc(O)cc1)c1ccc(F)c(F)c1 [Example 25, N-(3,4-Difluorophenyl)-N-(4-hydroxyphenyl)-3-(6-{[(3S)-3-[2-(morpholin-4-yl)ethyl]-3,4-dihydroisoquinolin-2(1H)-yl]carbonyl}-1,3-benzodioxol-5-yl)-5,6,7,8-tetrahydroindolizine-1-carboxamide hydrochloride]
IC50 [1]: 30 nM | IC50 (Bcl-2 protein): 7.9 nM

O=C(c1cc(-c2cc3c(cc2C(=O)N2Cc4ccccc4C[C@H]2CCN2CCOCC2)OCO3)n2c1CCCC2)N(c1ccccc1)c1cccc(F)c1 [Example 26, N-(3-Fluorophenyl)-3-(6-{[(3S)-3-[2-(morpholin-4-yl)ethyl]-3,4-dihydro-isoquinolin-2(1H)-yl]carbonyl}-1,3-benzodioxol-5-yl)-N-phenyl-5,6,7,8-tetrahydro-indolizine-1-carboxamide hydrochloride]
IC50 [1]: 300 nM | IC50 (Bcl-2 protein): 16.6 nM

O=C(c1cc(-c2cc(Cl)ccc2C(=O)N2Cc3ccccc3C[C@H]2CCN2CCOCC2)n2c1CCCC2)N(c1ccc(O)cc1)c1cccc(F)c1 [Example 27, 3-(5-Chloro-2-{[(3S)-3-[2-(morpholin-4-yl)ethyl]-3,4-dihydroisoquinolin-2(1H)-yl]carbonyl}phenyl)-N-(3-fluorophenyl)-N-(4-hydroxyphenyl)-5,6,7,8-tetrahydroindolizine-1-carboxamide hydrochloride]
IC50 [1]: 44.1 nM | IC50 (Bcl-2 protein): 7.7 nM

COc1ccc(C(=O)N2Cc3ccccc3C[C@H]2CCN2CCOCC2)c(-c2cc(C(=O)N(c3ccccc3)c3ccc(O)cc3)c3n2CCCC3)c1 [Example 28, N-(4-Hydroxyphenyl)-3-(5-methoxy-2-{[(3S)-3-[2-(morpholin-4-yl)ethyl]-3,4-dihydroisoquinolin-2(1H)-yl]carbonyl}phenyl)-N-phenyl-5,6,7,8-tetrahydro-indolizine-1-carboxamide hydrochloride]
IC50 [1]: 112 nM | IC50 (Bcl-2 protein): 8.8 nM

COc1ccc(-c2cc(C(=O)N(c3ccccc3)c3ccc(O)cc3)c3n2CCCC3)c(C(=O)N2Cc3ccccc3C[C@H]2CCN2CCOCC2)c1 [Example 29, N-(4-Hydroxyphenyl)-3-(4-methoxy-2-{[(3S)-3-[2-(morpholin-4-yl)ethyl]-3,4-dihydroisoquinolin-2(1H)-yl]carbonyl}phenyl)-N-phenyl-5,6,7,8-tetrahydro-indolizine-1-carboxamide hydrochloride]
IC50 [1]: 163 nM | IC50 (Bcl-2 protein): 19 nM

C[C@@H]1Cc2ccccc2CN1C(=O)c1cc2c(cc1-c1cc(C(=O)N(c3ccc(O)cc3)c3ccc(CN4CCCC(F)(F)C4)cc3)c3ccccn13)OCO2 [Example 30, N-{4-[(3,3-Difluoropiperidin-1-yl)methyl]phenyl}-N-(4-hydroxyphenyl)-3-(6-{[(3R)-3-methyl-3,4-dihydroisoquinolin-2(1H)-yl]carbonyl}-1,3-benzodioxol-5-yl)indolizine-1-carboxamide hydrochloride]
IC50 [1]: 52.3 nM | IC50 (Bcl-2 protein): 10.4 nM

C[C@@H]1Cc2ccccc2CN1C(=O)c1cc2c(cc1-c1cc(C(=O)N(c3ccc(O)cc3)c3ccc4ncccc4c3)c3ccccn13)OCO2 [Example 31, N-(4-Hydroxyphenyl)-3-(6-{[(3R)-3-methyl-3,4-dihydroisoquinolin-2(1H)-yl]carbonyl}-1,3-benzodioxol-5-yl)-N-(quinolin-6-yl)indolizine-1-carboxamide hydrochloride]
IC50 [1]: 13.7 nM | IC50 (Bcl-2 protein): 5.4 nM

Cc1cc(N(C(=O)c2cc(-c3cc4c(cc3C(=O)N3Cc5ccccc5C[C@H]3C)OCO4)n3ccccc23)c2ccc(O)cc2)ccn1 [Example 32, N-(4-Hydroxyphenyl)-3-(6-{[(3R)-3-methyl-3,4-dihydroisoquinolin-2(1H)-yl]carbonyl}-1,3-benzodioxol-5-yl)-N-(2-methylpyridin-4-yl)indolizine-1-carboxamide hydrochloride]
IC50 [1]: 32.7 nM | IC50 (Bcl-2 protein): 5 nM

C[C@@H]1Cc2ccccc2CN1C(=O)c1cc2c(cc1-c1cc(C(=O)N(c3ccc(O)cc3)c3cnc4c(ccn4C)c3)c3ccccn13)OCO2 [Example 33, N-(4-Hydroxyphenyl)-3-(6-{[(3R)-3-methyl-3,4-dihydroisoquinolin-2(1H)-yl]carbonyl}-1,3-benzodioxol-5-yl)-N-(1-methyl-1H-pyrrolo[2,3-b]pyridin-5-yl)indolizine-1-carboxamide hydrochloride]
IC50 [1]: 6.33 nM | IC50 (Bcl-2 protein): 4.6 nM

C[C@@H]1Cc2ccccc2CN1C(=O)c1cc2c(cc1-c1cc(C(=O)N(c3ccc(O)cc3)c3cccnc3)c3ccccn13)OCO2 [Example 34, N-(4-Hydroxyphenyl)-3-(6-{[(3R)-3-methyl-3,4-dihydroisoquinolin-2(1H)-yl]carbonyl}-1,3-benzodioxol-5-yl)-N-(pyridin-3-yl)indolizine-1-carboxamide hydrochloride]
IC50 [1]: 27.3 nM | IC50 (Bcl-2 protein): 5.6 nM

C[C@@H]1Cc2ccccc2CN1C(=O)c1cc2c(cc1-c1cc(C(=O)N(c3ccc(O)cc3)c3ccc(CCN4CCCC(F)(F)C4)cc3)c3ccccn13)OCO2 [Example 35, N-{4-[2-(3,3-Difluoropiperidin-1-yl)ethyl]phenyl}-N-(4-hydroxyphenyl)-3-(6-{[(3R)-3-methyl-3,4-dihydroisoquinolin-2(1H)-yl]carbonyl}-1,3-benzodioxol-5-yl)indolizine-1-carboxamide hydrochloride]
IC50 [1]: 62.2 nM | IC50 (Bcl-2 protein): 15.1 nM
